Patent US20250109165A1, “CYCLOPHILIN INHIBITORS AND USES THEREOF” (The Broad Institute, Inc., priority 2022, published 2025)
Several values for one entry are separate records, joined by “and”; a condition that tells them apart may be missing. Equal entries are not always repeated.

Tests used:
HeLa cells = assay: Fluorescence microscopy on HeLa cells; type: cell-based, human; conditions: Cy5 labeled compound 6 μM
Procedure: Fluorescence microscopy on Hela cells. Into 96 well black, clear bottom TC treated plates, cells were seeded in Dulbecco's Modified Eagle Medium (DMEM) supplemented with 10% fetal bovine serum 24 hours prior at a density where wells were ˜80% confluent at time of experiment. Media was removed and cells were then stained with 50 μL of mixture containing Cy5 labeled compound (6 μM) in Kreb's ringer solution HEPES buffered pH 7.2 (KRB), for 1 hour at 37° C. Then, 50 μL Hoechst 33342 (8 μM) and Mitotracker Green FM (0.1 μM) in KRB was added directly to wells containing cells and incubated for 15 minutes at 37° C. Media was removed and cells were washed two times with 100 μL KRB. Cells were then kept adherent to the wells in 100 μL KRB for imaging. Fluorescence microscopy was conducted on an Opera Phenix Plus High-Content Screening System, using Alexa 488, Alexa 647, and Hoescht 33342 channels. Images were analyzed using Harmony 4.9.

cyclophilins [1] = assay: Prolyl-isomerase inhibition screen on cyclophilins and cyclophilin mutants; type: biochemical, human
Procedure: (§1) IC50 values were calculated to be the value at which 50% inhibition was achieved on each compound's non-linear regression fitted curve.

[2] = system: mPTP opening in isolated mouse liver mitochondria; assay: Mitochondrial calcium retention capacity assay; type: cell-based; conditions: 2 μM CsA, 10 μM B52-Cy5, 10 μM *B52-Cy5, 20 μM B53-Cy5, 20 μM *B53-Cy5; pulses of 60 μM CaCl2; compared to DMSO control
Procedure: Isolation of mouse liver mitochondria: All procedures used in animal studies were approved by the Institutional Animal Care and Use Committee at Massachusetts General Hospital. Female C57B1/6 J mice (Jackson Labs) age 10-12 weeks were anesthetized by isoflurane. The liver from one mouse was rinsed in ice-cold PBS, minced in ice-cold isolation buffer containing 0.28 M sucrose, 10 mM Hepes-KOH pH 7.2, 0.2 mM EDTA and 1% (w/v) BSA, gently homogenized with 4 strokes of a tight-fitting Teflon pestle at 1000 rpm, and then centrifuged for 10 minutes at 600 g at 4° C. The supernatant was recovered and centrifuged for 10 minutes at 8000 g at 4° C. The loose outer buffy coat was rinsed off and the pellet resuspended gently in isolation buffer and the spins were repeated. […] The suspension was kept on ice and all assays performed within 4-6 hours following isolation. Quality control was done with every preparation by adding 250 mcg mitochondria to 500 μl of assay buffer containing 137 mM KCl, 10 mM Hepes-KOH pH 7.2, 2.5 mM MgCl2, 5 mM each of glutamate and malate, and 3 mM KH2PO4. Sequential 150 μM ADP pulses were then delivered. Preparations with respiratory control ratio>6 (as assessed by the ratio of ADP-coupled state 3 respiration to state 4 respiration) were used for further experiments. Measurements were made in a custom-built fluorimeter using a cuvette with a Red Eye oxygen patch (Ocean Optics) and an optical probe that is connected to the fluorimeter.
Mitochondrial calcium retention capacity assays: 250 mcg of mouse liver mitochondria isolated as above were added to […] of assay buffer containing 125 mM KCl, 20 mM Hepes-KOH pH 7.2, 1 mM MgCl2, 5 mM each of glutamate and malate, and 3 mM KH2PO4. 0.5 μM Calcium Green-5N (Molecular Probes) was included to monitor extramitochondrial free Ca^2+. Fluorescence was continuously monitored in the custom-built fluorimeter described above, with excitation 470 nm and emission […]. Sequential 60 μM CaCl2) pulses were delivered until Ca^2+ uptake ceased and an abrupt release of previously taken up Ca^2+ was observed, consistent with mPTP opening. The calcium retention capacity ratio (CRC) was obtained by normalizing the number of Ca^2+ pulses that could be taken up in a given condition by that taken up under DMSO control conditions, as previously described^72.

CypD = target: T1, CypD (Homo sapiens, UniProt P30405); assay: Chymotrypsin coupled prolyl-isomerase assay; type: biochemical
T1 construct: PPIF (UniProtKB Entry P30405: res 45-207); made in house; host or cells: E. coli BL21(DE3)
T1 sequence (P30405 45-207): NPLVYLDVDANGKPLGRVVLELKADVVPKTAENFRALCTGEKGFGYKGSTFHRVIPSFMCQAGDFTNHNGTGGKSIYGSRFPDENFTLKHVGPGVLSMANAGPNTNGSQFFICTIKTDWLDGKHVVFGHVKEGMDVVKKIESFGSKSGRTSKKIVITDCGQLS
Procedure: as §1

cyclophilins [3] = assay: Anisotropy binding assay of fluorescein-labeled macrocycles; set-up: species or system human; conditions: 0.5 nM fluorescein-labeled macrocycle
Procedure: Final assay volume was 100 μL with 0.25% DMSO. Fluorescence anisotropy was then measured using a Tecan Spark® plate reader using 492 nm/523 nm excitation/emission settings.

CypE [4] = target: T2, CypE (Homo sapiens, UniProt Q9UNP9); assay: Competition anisotropy (fluorescence polarization) binding assay with A26-Fl
T2 construct: PPIE (UniProtKB Entry Q9UNP9: res 131-301); host or cells: E. coli BL21(DE3)
T2 sequence (Q9UNP9 131-301): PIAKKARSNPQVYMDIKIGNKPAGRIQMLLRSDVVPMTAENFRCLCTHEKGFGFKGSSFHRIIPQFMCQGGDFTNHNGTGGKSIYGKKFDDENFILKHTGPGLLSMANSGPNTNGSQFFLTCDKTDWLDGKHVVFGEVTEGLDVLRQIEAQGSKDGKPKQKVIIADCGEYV
Procedure: Competition anisotropy binding assay with A26-Fl: Adapted from previous work^54, into a flat-bottom black untreated 96 well plate (Corning), cyclophilin in assay buffer (25 mM HEPES pH 8.0, 100 mM NaCl, 0.01% Triton X-100) at a predetermined concentration from FIG. 27 was incubated with 0.5 nM A26-Fl for 10 minutes at room temperature. Competitor macrocycle was then added to each well and incubated for 24 hours. Final assay volume was 100 μL with 0.25% DMSO. Fluorescence anisotropy was then measured using a Tecan Spark® plate reader using 492 nm/523 nm excitation/emission settings. Raw fluorescence polarization data was normalized to protein+fluorescent probe and buffer+fluorescent probe and Ki values were calculated using one site-competitive binding equation with Prism 9, importing Kd values from A26-Fl (FIGS. 12A-12C).

CypE [5] = target: T2, CypE; assay: Assessment of covalent modification by mass spectrometry; conditions: after treatment with NaCNBH3
Procedure: Assessment of covalent modification of CypE and other cyclophilin proteins: Into PCR strip, CypE or other cyclophilin in assay buffer (25 mM HEPES pH 8.0, 100 mM NaCl, 0.01% Triton X-100) was incubated with compound for 1 hour at room temperature. Final concentrations were 20 μM CypE, 100 μM compound, 0.5% DMSO, at a final volume of 20 μL. For analysis of lysine-iminoboronate modification, samples were directly submitted to Harvard's Center for Mass Spectroscopy for LC-MS analysis. For amine-lysine modification, samples were treated with 5 μL of 125 mM sodium cyanoborohydride dissolved in 25 mM Ammonium bicarbonate solution (pH 8.0) and incubated for 4 hours at room temperature. For all other wild-type cyclophilins, protein was treated for 4 hours with C3A, followed by 16 hour treatment with NaCNBH3. Final [NaCNBH3]=25 mM. Samples were then submitted for LC-MS as described above.

CypE [6] = target: T2, CypE; assay: Chymotrypsin coupled prolyl-isomerase assay; type: biochemical
Procedure: as §1

SMILES	mitochondrial localization (overlap with Mitotracker Green) (HeLa cells)	calcium retention capacity prior to mPTP opening [2]	binding to five non-prolyl isomerase active cyclophilins (PPIL2, PPIL3, PPIL4, PPIL6, SDCCAG-10) (cyclophilins [3])	binding to prolyl-isomerase-active cyclophilins (in words) (cyclophilins [3])	other results
C[N+]1=C(/C=C/C=C/C=C2\N(CCCCCC(=O)NCCNC(=O)[C@H]3CCNC(=O)/C=C/C(=O)N4CCC[C@@](Cc5ccccc5)(C4)C(=O)N[C@H](Cc4ccc(-c5ccc(CC(C(=O)O)C(=O)O)cc5)cc4)C(=O)NCc4ccccc4CC(=O)N3)c3ccccc3C2(C)C)C(C)(C)c2ccccc21 [*B52-Cy5]	poor mitochondrial localization and fluorescence	did not influence calcium retention capacity			inhibition of cyclophilins tested (in words) (cyclophilins [1]): no substantial inhibition profile; CypD prolyl-isomerase inhibition (in words) (CypD): did not inhibit CypD
C[N+]1=C(/C=C/C=C/C=C2\N(CCCCCC(=O)NCCNC(=O)[C@H]3CCNC(=O)/C=C/C(=O)N4CCC[C@@](Cc5ccccc5)(C4)C(=O)N[C@H](Cc4ccc(-c5ccc(C(CC(=O)O)CC(=O)O)cc5)cc4)C(=O)NCc4ccccc4CC(=O)N3)c3ccccc3C2(C)C)C(C)(C)c2ccccc21 [*B53-Cy5]	poor mitochondrial localization and fluorescence	did not influence calcium retention capacity			inhibition of cyclophilins tested (in words) (cyclophilins [1]): no substantial inhibition profile; CypD prolyl-isomerase inhibition (in words) (CypD): did not inhibit CypD
O=C1/C=C/C(=O)N2CCC[C@](Cc3ccccc3)(C2)C(=O)N[C@@H](Cc2ccco2)C(=O)NCc2ccccc2CC(=O)N[C@H](C(=O)NCCCOCCOCCOCCCNC(=O)c2ccc3c(c2)C(=O)OC32c3ccc(O)cc3Oc3cc(O)ccc32)CCN1 [Compound A26-Fl]			very weak or no binding	promiscuously binds	
CN1/C(=C/C=C/C=C/C2=[N+](CCCCCC(=O)NCCNC(=O)[C@@H]3CCNC(=O)/C=C/C(=O)N4CCC[C@](Cc5ccccc5)(C4)C(=O)N[C@@H](Cc4ccc(-c5ccc(CC(C(=O)O)C(=O)O)cc5)cc4)C(=O)NCc4ccccc4CC(=O)N3)c3ccccc3C2(C)C)C(C)(C)c2ccccc21 [Compound B52-Cy5]	poor mitochondrial localization and fluorescence	increased calcium retention capacity			plasma membrane / mammalian cell permeability (HeLa cells): not observed; cyclophilin selectivity profile (in words) (cyclophilins [1]): retain the same selectivity profile
O=C1/C=C/C(=O)N2CCC[C@](Cc3ccccc3)(C2)C(=O)N[C@@H](Cc2ccc(-c3ccc(CC(C(=O)O)C(=O)O)cc3)cc2)C(=O)NCc2ccccc2CC(=O)N[C@H](C(=O)NCCCOCCOCCOCCCNC(=O)c2ccc3c(c2)C(=O)OC32c3ccc(O)cc3Oc3cc(O)ccc32)CCN1 [Compound B52-Fl]			very weak or no binding	selective binding for CypD	
CN1/C(=C/C=C/C=C/C2=[N+](CCCCCC(=O)NCCNC(=O)[C@@H]3CCNC(=O)/C=C/C(=O)N4CCC[C@](Cc5ccccc5)(C4)C(=O)N[C@@H](Cc4ccc(-c5ccc(C(CC(=O)O)CC(=O)O)cc5)cc4)C(=O)NCc4ccccc4CC(=O)N3)c3ccccc3C2(C)C)C(C)(C)c2ccccc21 [Compound B53-Cy5]	poor mitochondrial localization and fluorescence	increased calcium retention capacity			plasma membrane / mammalian cell permeability (HeLa cells): not observed; cyclophilin selectivity profile (in words) (cyclophilins [1]): retain the same selectivity profile
O=C(O)CC(CC(=O)O)c1ccc(-c2ccc(C[C@@H]3NC(=O)[C@]4(Cc5ccccc5)CCCN(C4)C(=O)/C=C/C(=O)NCC[C@@H](C(=O)NCCCOCCOCCOCCCNC(=O)c4ccc5c(c4)C(=O)OC54c5ccc(O)cc5Oc5cc(O)ccc54)NC(=O)Cc4ccccc4CNC3=O)cc2)cc1 [Compound B53-Fl]			very weak or no binding	selective binding for CypD	
NC(=O)[C@@H]1CCNC(=O)/C=C/C(=O)N2CCC[C@](Cc3ccccc3)(C2)C(=O)N[C@@H](Cc2ccc(-c3ccc(C=O)cc3)cc2)C(=O)NCc2ccccc2CC(=O)N1 [Compound C5A]					decrease in potency relative to C3A (CypE [4]; FP competition with A26-Fl against CypE): 16 fold; CypE binding in FP competition (in words) (CypE [4]; compared to C3A): attenuated inhibition of CypE; mass shift of covalent adduct with CypE (CypE [5]): 806 Da and 780 Da; CypE potency and selectivity in prolyl isomerase assay (in words) (CypE [6]): loss in CypE potency and promiscuous cyclophilin inhibition; IC50 (CypE [6]; wild-type CypE, read-out: IC50^CypE): 1 µM
